Measurements as given in the supplement of paper PMC10883282.
± gives the standard deviation of the averaged measurements.

System: VA-ES-BJ
Test: relative viability vs DMSO control (72 h) (fraction); higher = more viable cells
In short: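 Sarcoma cell lines were plated in 384 wells to reach 80–90% confluence, treated after 24 h with 2.5 µl of serially diluted compound and held 72 h at 37 °C, 5% CO2. Relative viability was taken as percent growth from ATPLite readings, averaged over up to triplicate wells. The values were rescaled so that 1 marks full and 0 marks none.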

For `CO[C@H]1C[C@@H]2CC[C@@H](C)[C@@](O)(O2)C(=O)C(=O)N2CCCC[C@H]2C(=O)O[C@H]([C@H](C)C[C@@H]2CC[C@@H](OP(C)(C)=O)[C@H](OC)C2)CC(=O)[C@H](C)/C=C(\C)[C@@H](O)[C@@H](OC)C(=O)[C@H](C)C[C@H](C)/C=C/C=C/C=C/1C` [Ridaforolimus], the relative viability (0.00017 µM) was 0.97 ± 0.051, the relative viability (0.00051 µM) was 0.889 ± 0.031 and the relative viability (0.00152 µM) was 0.664 ± 0.016. The relative viability (0.00457 µM) was 0.602 ± 0.03, the relative viability (0.01372 µM) was 0.538 ± 0.018 and the relative viability (0.04115 µM) was 0.509 ± 0.025. For the same compound, the relative viability (0.1235 µM) was 0.487 ± 0.03, the relative viability (0.3704 µM) was 0.459 ± 0.0073 and the relative viability (1.111 µM) was 0.48 ± 0.014. For the same compound, the relative viability (3.333 µM) was 0.458 ± 0.026 and the relative viability (10 µM) was 0.45 ± 0.0084.
With `Cc1cnc(Nc2ccc(OCCN3CCCC3)cc2)nc1Nc1cccc(S(=O)(=O)NC(C)(C)C)c1` [Fedratinib] the relative viability (0.00017 µM) was 1.06 ± 0.042, the relative viability (0.00051 µM) was 1.08 ± 0.013 and the relative viability (0.00152 µM) was 1.03 ± 0.023. The relative viability (0.00457 µM) was 1.05 ± 0.021, the relative viability (0.01372 µM) was 1.04 ± 0.013 and the relative viability (0.04115 µM) was 1 ± 0.037. The relative viability (0.1235 µM) was 1.02 ± 0.032, the relative viability (0.3704 µM) was 0.781 ± 0.018 and the relative viability (1.111 µM) was 0.403 ± 0.019. The relative viability (3.333 µM) was 0.152 ± 0.0076 and the relative viability (10 µM) was -0.0115 ± 0.0047.
`Cn1cc(-c2cc3c(N4CCN(c5ncc([C@@](C)(N)c6ccc(F)cc6)cn5)CC4)ncnn3c2)cn1` [Avapritinib] was tested, and the relative viability (0.00017 µM) was 1.02 ± 0.013, the relative viability (0.00051 µM) was 1.01 ± 0.025 and the relative viability (0.00152 µM) was 1 ± 0.013. The relative viability (0.00457 µM) was 1.01 ± 0.03, the relative viability (0.01372 µM) was 0.998 ± 0.057 and the relative viability (0.04115 µM) was 0.993 ± 0.023. For the same compound, the relative viability (0.1235 µM) was 0.971 ± 0.039, the relative viability (0.3704 µM) was 0.98 ± 0.031 and the relative viability (1.111 µM) was 0.975 ± 0.011. It also gave a relative viability (3.333 µM) of 0.956 ± 0.034 and a relative viability (10 µM) of 0.979 ± 0.028.
`CN1CCN(c2ccc3nc(-c4c(N)c5c(F)cccc5[nH]c4=O)[nH]c3c2)CC1` [Dovitinib] showed a relative viability (0.00017 µM) of 1.06 ± 0.027, a relative viability (0.00051 µM) of 1.06 ± 0.028 and a relative viability (0.00152 µM) of 1.08 ± 0.044. The relative viability (0.00457 µM) was 1.08 ± 0.028, the relative viability (0.01372 µM) was 1.07 ± 0.029 and the relative viability (0.04115 µM) was 1.06 ± 0.031. For the same compound, the relative viability (0.1235 µM) was 1.05 ± 0.025, the relative viability (0.3704 µM) was 0.956 ± 0.0053 and the relative viability (1.111 µM) was 0.738 ± 0.049. It also gave a relative viability (3.333 µM) of 0.495 ± 0.021 and a relative viability (10 µM) of 0.313 ± 0.039.
